Measured values taken from article PMC2878737 (Channels (Austin, Tex.), 2009).

Target: NaV1.2 (Rattus norvegicus, UniProt P04775)
Sequence (P04775 whole entry, looked up): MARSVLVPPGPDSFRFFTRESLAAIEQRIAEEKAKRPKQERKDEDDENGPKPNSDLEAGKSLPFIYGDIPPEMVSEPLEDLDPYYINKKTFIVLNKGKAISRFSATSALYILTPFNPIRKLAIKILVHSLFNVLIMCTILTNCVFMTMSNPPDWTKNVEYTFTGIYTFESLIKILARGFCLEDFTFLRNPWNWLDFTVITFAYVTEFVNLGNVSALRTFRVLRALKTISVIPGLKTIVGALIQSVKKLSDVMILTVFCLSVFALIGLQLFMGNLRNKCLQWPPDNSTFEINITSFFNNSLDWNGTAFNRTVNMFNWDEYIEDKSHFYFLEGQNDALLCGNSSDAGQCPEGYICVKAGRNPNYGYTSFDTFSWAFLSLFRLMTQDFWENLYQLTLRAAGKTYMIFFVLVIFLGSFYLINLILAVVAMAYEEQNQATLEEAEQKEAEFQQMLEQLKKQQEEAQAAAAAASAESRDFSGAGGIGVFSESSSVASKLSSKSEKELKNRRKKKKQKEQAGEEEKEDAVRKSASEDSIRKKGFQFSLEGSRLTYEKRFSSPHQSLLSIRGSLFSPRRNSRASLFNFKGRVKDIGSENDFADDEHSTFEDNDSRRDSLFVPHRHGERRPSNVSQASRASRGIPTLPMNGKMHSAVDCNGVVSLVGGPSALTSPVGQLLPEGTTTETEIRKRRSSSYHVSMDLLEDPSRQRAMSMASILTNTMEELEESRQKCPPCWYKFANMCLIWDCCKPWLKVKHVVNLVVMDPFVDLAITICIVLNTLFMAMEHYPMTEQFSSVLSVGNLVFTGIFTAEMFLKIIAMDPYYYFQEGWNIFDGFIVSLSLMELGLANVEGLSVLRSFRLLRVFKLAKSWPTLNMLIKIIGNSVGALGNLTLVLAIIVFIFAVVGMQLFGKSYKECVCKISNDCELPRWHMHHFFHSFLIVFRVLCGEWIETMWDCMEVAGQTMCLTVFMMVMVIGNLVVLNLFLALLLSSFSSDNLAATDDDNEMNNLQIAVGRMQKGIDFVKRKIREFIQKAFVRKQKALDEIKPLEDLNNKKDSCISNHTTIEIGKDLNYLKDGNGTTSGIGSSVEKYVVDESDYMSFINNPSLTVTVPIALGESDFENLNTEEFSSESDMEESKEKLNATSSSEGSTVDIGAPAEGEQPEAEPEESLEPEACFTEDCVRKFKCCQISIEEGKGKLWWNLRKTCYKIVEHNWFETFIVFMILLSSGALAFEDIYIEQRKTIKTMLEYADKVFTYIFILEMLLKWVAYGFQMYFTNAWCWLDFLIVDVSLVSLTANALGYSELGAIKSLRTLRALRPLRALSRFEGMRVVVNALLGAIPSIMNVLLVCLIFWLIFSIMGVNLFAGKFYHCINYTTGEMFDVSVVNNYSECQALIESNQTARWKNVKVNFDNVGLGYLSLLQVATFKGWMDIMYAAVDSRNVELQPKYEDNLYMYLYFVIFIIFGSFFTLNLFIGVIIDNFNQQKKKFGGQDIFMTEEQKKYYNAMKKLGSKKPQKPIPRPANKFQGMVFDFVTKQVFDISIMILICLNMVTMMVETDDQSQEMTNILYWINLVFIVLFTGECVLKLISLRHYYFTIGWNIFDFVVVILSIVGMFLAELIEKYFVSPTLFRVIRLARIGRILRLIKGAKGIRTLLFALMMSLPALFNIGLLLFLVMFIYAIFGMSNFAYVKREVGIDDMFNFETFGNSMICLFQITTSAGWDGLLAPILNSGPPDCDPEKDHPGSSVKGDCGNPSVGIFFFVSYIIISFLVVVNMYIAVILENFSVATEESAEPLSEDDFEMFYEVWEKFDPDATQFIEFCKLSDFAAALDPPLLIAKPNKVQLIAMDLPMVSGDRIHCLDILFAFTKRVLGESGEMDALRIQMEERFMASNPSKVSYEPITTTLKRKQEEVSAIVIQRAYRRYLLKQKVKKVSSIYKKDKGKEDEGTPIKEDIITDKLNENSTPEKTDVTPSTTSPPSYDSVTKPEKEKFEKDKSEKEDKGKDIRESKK

NC1=N[C@H](O)[C@H]2[C@H]3O[C@]4(O)O[C@@H]([C@@H](O)[C@@]2(N1)[C@@H]4O)[C@]3(O)CO [TTX, Tetrodotoxin]
block of residual INa persisting with KIIIA or KIIIA[K7A]: completely blocked
